“Also recorded” adds a separate entry of the source.
How the values were obtained:
[1] = system: NOD1 (NLRC1) induced NF-κB-luciferase reporter gene activity; assay: NF-κB reporter in HEK293-NF-κB-luc cells over-expressing NOD1; format: cell-based; conditions: CID-2858522 4 μM, IKK inhibitor 10 μM
Procedure: (§1) FIGS. 3 (A-F) HEK293-NF-κB-luc cells were pretreated with CID-2858522 (4 μM), IKK inhibitor, BMS-335541 (10 μM), or PKC inhibitor, Bisindolylmaleimide I (1 μM) for 2 hrs and then transfected with plasmids encoding CD4/TLR4 (A), CD40 (B), NOD1 (C), NOD2 (D), cIAP2-MALT1 (E), or XIAP and TAB (F), or pcDNA as control (compounds were not removed). After 48 hrs, luciferase activity was measured expressing data as fold increase relative to unstimulated cells (mean±SD; n=3). (G-H) HEK293-NF-κB-luc cells were pretreated with CID-2858522 (4 μM), or IKK inhibitor, BMS-335541 (10 μM) for 2 hrs and then cultured with 2 μM doxorubicin (G) or 16 μM retinoic acid (H). After 48 hrs, luciferase activity was measured as above.
Counter Screening and Secondary Assays. To counter-screen for inhibitors of the TNF pathway, HEK293-NFκB-Luc cells were seeded at 10^5 cells per well in 90 μL medium in white 96-well plates (Greiner Bio-One) and cultured overnight, before adding compounds (5 μL in medium) to cells. […] Luciferase activity was measured using Britelite kit (Perkin Elmer). […] Cells were cultured in medium containing CID-2858522 or other compounds and luciferase activity was measured 48 h later. […] Reactions were then initiated by addition of 50 μL 160 nM ATP (Sigma) in PBS and luciferase activity was measured 2 h later using a luminometer (LJL Biosystems, Sunnyvale, Calif.).

[2] = system: cIAP2/MALT oncoprotein induced NF-κB activation; assay: NF-κB reporter in 293-NF-κB-luciferase cells transfected with cIAP2/MALT; format: cell-based; conditions: CID-2858522 4 μM, IKK inhibitor 10 μM
Procedure: as §1
Counter Screening and Secondary Assays. To counter-screen for inhibitors of the TNF pathway, HEK293-NFκB-Luc cells were seeded at 10^5 cells per well in 90 μL medium in white 96-well plates (Greiner Bio-One) and cultured overnight, before adding compounds (5 μL in medium) to cells. After 2 h incubation, 5 μL TNF (200 ng/mL) (R&D Systems) was added (final concentration 10 ng/mL) and cells were incubated for 16 h. Luciferase activity was measured using Britelite kit (Perkin Elmer). To counter-screen for inhibitors of NF-κB induced by TLR4, CD40, NOD1, NOD2, cIAP2/MALT, or XIAP/TAB, the 293-NF-κB-luc cells cultured in 96 well plates as above were pretreated with compounds for 2 h and then transfected using Lipofectamine 2000 with various plasmids including pcDNA3 (“empty vector” control) or plasmids encoding CD4-TLR4, CD40, NOD1, NOD2, cIAP2/MALT, XIAP/TAB, using 0.2 μL of transfection reagent containing 100 ng DNA per well. Cells were cultured in medium containing CID-2858522 or other compounds and luciferase activity was measured 48 h later. […] Reactions were then initiated by addition of 50 μL 160 nM ATP (Sigma) in PBS and luciferase activity was measured 2 h later using a luminometer (LJL Biosystems, Sunnyvale, Calif.).

PKC-beta = molecular target: T1, PKC-beta (Homo sapiens, UniProt P05771); assay: In vitro kinase assay PKC-beta (HTScan kit); format: biochemical; conditions: CID-2858522 up to 8 μM; STS 0.5 μM; PKC inhibitor 1 μM
T1 construct: purchased Cell Signaling, Danvers, Mass
Procedure: (§2) CID-2858522 (8 μM) were tested in in vitro IKK beta (A), PKC beta […] or PKC theta (C) kinase assays using kits. STS (0.5 μM), IKK inhibitor (10 μM) and PKC inhibitor (1 μM) were used as positive controls.
(§3) In Vitro Kinase Assays. PKC-beta, PKC-theta and IKK-beta in vitro kinase assays were performed using the HTScan Kinase Assay Kit (Cell Signaling, Danvers, Mass.) according to manufacturer's protocols. A panel of >300 kinases was screened by Ambit, Inc.

PKC-theta = molecular target: T2, PKC-theta (Homo sapiens, UniProt Q04759); assay: In vitro kinase assay PKC-theta (HTScan kit); format: biochemical; conditions: CID-2858522 up to 8 μM; STS 0.5 μM; PKC inhibitor 1 μM
T2 construct: purchased Cell Signaling, Danvers, Mass
Procedure: as §2, §3

IKK-beta = molecular target: T3, IKK-beta (Homo sapiens, UniProt O14920); assay: In vitro kinase assay IKK-beta (HTScan kit); format: biochemical; conditions: CID-2858522 up to 8 μM; STS 0.5 μM; IKK inhibitor 10 μM
T3 construct: purchased Cell Signaling, Danvers, Mass
Procedure: as §2, §3

[3] = system: MALT1-caspase-8 interaction; assay: PMA-induced MALT1-caspase-8 interaction in HEK293 cells; format: cell-based; conditions: HEK293 over-expressing Flag-MALT1 and Caspase-8, PMA
Text: Caspase-8 plays an essential role in antigen receptor-mediated NF-κB activation. It was recently reported that MALT1 interacts with Caspase-8 and activates this protease upon antigen receptor activation. […] We then examined if CID-2858522 affected the pathway at this point. PMA induced significant MALT1-caspase-8 interaction in HEK293 cells over-expressing Flag-MALT1 and Caspase-8. […] The caspase-8 p43/41 processing intermediate was generated in HEK293 cells after PMA/Ion treatment. […] We then assessed the effects of CID-2858522 on PMA-induced proteolytic processing of c-FLIP, a Caspase-8-mediated event recently shown to be required for antigen receptor mediated NF-κB activation.

c-FLIP processing = assay: PMA/Ionomycin-induced c-FLIP processing in HEK293 cells (immunoblot); format: cell-based; conditions: CID-2858522 4 μM, PKC inhibitor 1 μM
Procedure: FIG. 7. CID-285852 inhibits IKKβ phosphorylation induced by PKC activators. (A) HEK293 cells were cultured in 0.5% FBS medium for 24 h and then treated with CID-2858522 (4 μM) or PKC inhibitor, Bisindolylmaleimide I (1 μM) for 2 hrs followed by PMA/Ionomycin (10 ng/mL; 5 ng/mL) for 2 h. Cell lysates were subjected to immunoprecipitation using anti-CARMA1 antibody and analyzed by immunoblotting with anti-phospho-CARMA1 antibody or anti-CARMA1 antibody. (B-E) HEK293 cells were transfected with plasmids encoding myc-CARMA1 in combination with plasmids encoding various other proteins including Caspase-8 (cys287ala) (B), HA-IKK-γ (C), HA-TAK1 (D), and TRAF6 (E). […] Cell lysates were immunoprecipated using anti-myc antibody and analyzed by immunoblotting using anti-Caspase8 (B), anti-HA (C,D), or anti-TRAF6 (E) antibodies. […] Cell lysates were normalized for protein content and analyzed by immunoblotting using anti-FLIP and anti-alpha-tubulin antibodies. […] Cell lysates were immunoprecipitated using anti-IKK-β and analyzed by immunoblotting using anti-phospho-IKK-β antibody or anti-IKK-β antibody (as loading control). […]
Caspase-8 plays an essential role in antigen receptor-mediated NF-κB activation. […] We then assessed the effects of CID-2858522 on PMA-induced proteolytic processing of c-FLIP, a Caspase-8-mediated event recently shown to be required for antigen receptor mediated NF-κB activation.

T1 sequence (P05771 whole entry): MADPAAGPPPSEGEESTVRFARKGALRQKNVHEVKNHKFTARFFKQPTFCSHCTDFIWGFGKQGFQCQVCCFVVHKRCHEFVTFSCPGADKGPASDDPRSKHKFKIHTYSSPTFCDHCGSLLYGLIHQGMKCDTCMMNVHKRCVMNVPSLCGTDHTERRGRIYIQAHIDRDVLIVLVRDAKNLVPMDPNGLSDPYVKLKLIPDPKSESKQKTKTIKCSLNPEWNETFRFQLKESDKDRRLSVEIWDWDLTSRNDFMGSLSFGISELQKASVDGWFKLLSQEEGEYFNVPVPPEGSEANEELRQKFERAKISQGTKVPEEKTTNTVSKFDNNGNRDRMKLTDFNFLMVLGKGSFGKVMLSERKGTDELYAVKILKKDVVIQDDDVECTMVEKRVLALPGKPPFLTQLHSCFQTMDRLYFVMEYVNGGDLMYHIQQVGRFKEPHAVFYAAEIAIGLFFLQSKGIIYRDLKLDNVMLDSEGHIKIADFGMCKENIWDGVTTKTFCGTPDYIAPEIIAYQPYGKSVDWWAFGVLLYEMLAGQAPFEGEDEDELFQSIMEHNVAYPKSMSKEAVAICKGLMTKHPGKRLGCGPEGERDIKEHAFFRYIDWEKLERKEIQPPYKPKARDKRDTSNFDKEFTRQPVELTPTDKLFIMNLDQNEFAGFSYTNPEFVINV
T2 sequence (Q04759 whole entry): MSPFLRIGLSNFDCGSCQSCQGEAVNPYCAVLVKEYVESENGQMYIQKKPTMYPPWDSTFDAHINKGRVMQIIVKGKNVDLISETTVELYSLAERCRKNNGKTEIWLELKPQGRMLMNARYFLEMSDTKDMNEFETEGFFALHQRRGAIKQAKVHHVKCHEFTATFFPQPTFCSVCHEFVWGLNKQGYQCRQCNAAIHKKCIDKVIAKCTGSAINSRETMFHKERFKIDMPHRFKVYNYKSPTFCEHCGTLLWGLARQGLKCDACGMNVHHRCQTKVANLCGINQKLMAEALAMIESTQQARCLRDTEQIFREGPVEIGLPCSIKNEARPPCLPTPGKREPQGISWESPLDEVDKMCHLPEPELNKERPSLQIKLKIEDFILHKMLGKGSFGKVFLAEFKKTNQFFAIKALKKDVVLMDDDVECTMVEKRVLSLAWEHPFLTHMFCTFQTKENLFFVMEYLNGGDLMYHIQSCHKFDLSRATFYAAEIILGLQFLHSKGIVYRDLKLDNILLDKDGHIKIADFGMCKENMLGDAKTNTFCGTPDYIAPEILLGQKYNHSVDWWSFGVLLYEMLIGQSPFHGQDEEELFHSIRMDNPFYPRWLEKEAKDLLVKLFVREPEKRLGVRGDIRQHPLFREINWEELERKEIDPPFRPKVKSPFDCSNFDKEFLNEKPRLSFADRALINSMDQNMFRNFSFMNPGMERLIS
T3 sequence (O14920 whole entry): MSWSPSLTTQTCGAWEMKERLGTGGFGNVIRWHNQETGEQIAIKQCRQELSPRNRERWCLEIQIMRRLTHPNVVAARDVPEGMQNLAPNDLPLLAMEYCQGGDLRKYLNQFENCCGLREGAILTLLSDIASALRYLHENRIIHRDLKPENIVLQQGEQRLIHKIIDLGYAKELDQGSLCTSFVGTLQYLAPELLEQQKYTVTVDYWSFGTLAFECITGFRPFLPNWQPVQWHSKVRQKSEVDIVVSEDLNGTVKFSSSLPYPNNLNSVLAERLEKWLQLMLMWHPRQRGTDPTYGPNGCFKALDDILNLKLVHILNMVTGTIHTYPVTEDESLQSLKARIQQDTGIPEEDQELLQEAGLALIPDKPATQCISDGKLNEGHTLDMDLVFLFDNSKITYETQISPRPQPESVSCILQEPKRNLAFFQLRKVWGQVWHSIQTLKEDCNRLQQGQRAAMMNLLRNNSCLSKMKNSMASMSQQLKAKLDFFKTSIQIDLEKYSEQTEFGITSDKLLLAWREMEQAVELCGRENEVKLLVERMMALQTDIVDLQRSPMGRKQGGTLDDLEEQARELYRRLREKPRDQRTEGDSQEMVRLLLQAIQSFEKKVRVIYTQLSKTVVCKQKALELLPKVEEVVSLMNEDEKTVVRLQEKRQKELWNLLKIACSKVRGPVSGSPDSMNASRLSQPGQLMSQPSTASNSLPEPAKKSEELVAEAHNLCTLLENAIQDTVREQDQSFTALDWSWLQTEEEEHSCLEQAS

Structure (SMILES)	inhibition of NOD1-induced NF-κB reporter [1]	suppression of cIAP2/MALT-driven NF-κB activation [2]	suppression of cIAP2/MALT-driven NF-κB activation ([2]; listed as CID-288522)	inhibition of PKC-beta kinase activity (PKC-beta)	inhibition of PKC-theta kinase activity (PKC-theta)	inhibition of IKK-beta kinase activity (IKK-beta)	inhibition of MALT1-caspase-8 interaction [3]	inhibition of c-FLIP processing (c-FLIP processing)
Cc1cc2nc(NCCCO)n(CC(=O)c3cc(C(C)(C)C)c(O)c(C(C)(C)C)c3)c2cc1C [Compound 1, 2-(2-(3-Hydroxypropylamino)-5,6-dimethyl-1H-benzo[d]imidazol-1-yl)-1-(3,5-di-tert-butyl-4-hydroxyphenyl)ethanone]	did not inhibit; also recorded: not by CID-2858522	did not inhibit	did not	failed to suppress	failed to suppress	failed to suppress	not by CID-2858522	not affected
Cc1ccc2nc(NCCN)c3ncc(C)n3c2c1 [BMS-345541, reference compound]	inhibited	effectively suppressed	–	–	–	potent inhibition	–	–
CN(C)CCCn1cc(C2=C(c3c[nH]c4ccccc34)C(=O)NC2=O)c2ccccc21 [Bisindolylmaleimide I, reference compound]	–	–	–	potent inhibition	potent inhibition	–	inhibited	completely inhibited

Reference: patent US20090247520A1, “INHIBITORS OF ANTIGEN RECEPTOR-INDUCED NF-kappa B ACTIVATION” (The Burnham Institute for Medical Research, priority 2008, published 2009)
